One compound from patent US20260018245A1, “SYSTEMS AND METHODS FOR IDENTIFYING AND TARGETING COLLATERAL LETHAL GENES” (The Regents of the University of Michigan, priority 2022, published 2026) can be followed below.

Each structure is given as a SMILES string.

What all share (assay type): cell-based
The subject of one assay is SKOV3 and OVCAR8 cells. The experiment in a line: De novo pyrimidine synthesis flux with [13C4]-aspartate tracer. The following applies: SKOV3 and OVCAR8, with vs without MTHFD2 inhibitor.
The next assay deals with SKOV3 cells. The experiment in a line: Oxygen consumption rate (OCR) measurement. As for the experimental part: FIG. 4 Dynamic flux analysis with parallel tracers to quantify oxidative MTHFD2 flux. a, Oxidative MTHFD2 flux and percentage decrease in OCRfollowing MTHFD2 inhibition in SKOV3 cells treated with rotenone (0, 31, 62, 125, 250, 500 or 1,000 nM) and MTHFD2 inhibitor (0 or 60 μM). Oxidative MTHFD2 flux is proportional to [2H1]-serine/[2H1]-NADH enrichment in cells cultured with 4-[2H]-glucose for 8 h. Percentage decrease in OCR is estimated in SKOV3 cells treated with 60 μM MTHFD2i compared with 0 μM MTHFD2i. Oxidative flux data are combined from two independent experiments (n=4), with mean±s.d. estimated using error propagation. OCR data are representative of two independent experiments and presented as mean±s.d. estimated using error propagation (n=5). b, Reductive MTHFD2 flux and basal OCR in SKOV3 cells treated with rotenone (0, 31, 62, 125, 250 or 1,000 nM) and MTHFD2 inhibitor (0 or 60 μM). Reductive MTHFD2 flux is proportional to [2H1]-NADH in cells cultured with 2,3,3-[2H]-serine for 8 h. OCR data are representative of two independent experiments and presented as mean±s.e.m. (n=5). c, Schematic of combination tracer experiment with 4-[2H]-glucose and [2H]-formate to track oxidative MTHFD2 flux. […] (n=6) and analysed using two-tailed Welch's t-test. e, Ratio of [2H2]-serine/[2H]-NADH enrichment in SKOV3 and OVCAR8 cells at 2 h after combined tracer introduction of 4-[2H]-glucose and [2H]-formate, representing the normalized contribution of [2H]-NADH to [2H2]-serine via oxidative MTHFD2 flux. Data combined from two independent experiments (n=6), with mean±s.d. estimated using error propagation and analysed by two-tailed Welch's t-test. f, [2H2]-serine enrichment in SKOV3 cells expressing shScramble or shUQCR11 at 2 h after combined tracer introduction of 4-[2H]-glucose and [2H]-formate. […] (n=5) and analysed using one-tailed non-parametric Mann-Whitney test.
OCR measurement. […] Live OCR was measured for up to 16 h after attaching the lid.
Mito stress test with the Seahorse analyser. Mitochondrial OCR was measured using a Seahorse XFe96 analyser (Agilent Technologies). […]

Assay [1] relates to reductive MTHFD2 flux in SKOV3 cells. Nature of the assay: Reductive MTHFD2 flux by 2,3,3-[2H]-serine tracing. The following applies: SKOV3 treated with MTHFD2 inhibitor 60 μM. As for the experimental part:
FIG. 4 Dynamic flux analysis with parallel tracers to quantify oxidative MTHFD2 flux. a, Oxidative MTHFD2 flux and percentage decrease in OCRfollowing MTHFD2 inhibition in SKOV3 cells treated with rotenone (0, 31, 62, 125, 250, 500 or 1,000 nM) and MTHFD2 inhibitor (0 or 60 μM). Oxidative MTHFD2 flux is proportional to [2H1]-serine/[2H1]-NADH enrichment in cells cultured with 4-[2H]-glucose for 8 h. Percentage decrease in OCR is estimated in SKOV3 cells treated with 60 μM MTHFD2i compared with 0 μM MTHFD2i. Oxidative flux data are combined from two independent experiments (n=4), with mean±s.d. estimated using error propagation. […] (n=6) and analysed using two-tailed Welch's t-test. e, Ratio of [2H2]-serine/[2H]-NADH enrichment in SKOV3 and OVCAR8 cells at 2 h after combined tracer introduction of 4-[2H]-glucose and [2H]-formate, representing the normalized contribution of [2H]-NADH to [2H2]-serine via oxidative MTHFD2 flux. Data combined from two independent experiments (n=6), with mean±s.d. estimated using error propagation and analysed by two-tailed Welch's t-test. f, [2H2]-serine enrichment in SKOV3 cells expressing shScramble or shUQCR11 at 2 h after combined tracer introduction of 4-[2H]-glucose and [2H]-formate. […] (n=5) and analysed using one-tailed non-parametric Mann-Whitney test. […]

As to `Cc1c(N2CCN(C)[C@@H](C)C2)ccc2c3c(c(=O)oc12)CN(C(=O)c1ccc(NS(C)(=O)=O)c(OC(F)(F)F)c1)CC3` [DS18561882], the “de novo pyrimidine synthesis flux” value with SKOV3 and OVCAR8 cells was “similarly reduced”. Further, the OCR result in the assay with SKOV3 cells (SKOV3, low range of rotenone doses plus MTHFD2 inhibitor 60 μM) is given as “synergistic decrease”; with SKOV3 cells (SKOV3, rotenone doses >62 nM plus MTHFD2 inhibitor) it was “did not detrimentally affect OCR”. The “reductive MTHFD2 flux” value in assay [1] is reported as “greatly reduced”.
